The source of these data is ChEMBL document CHEMBL4480423, “Mindapyrroles A-C, Pyoluteorin Analogues from a Shipworm-Associated Bacterium” (J Nat Prod, 2019).

In brackets after ≈: the same amount, converted by molar mass.

In experiment [1] the test system is Staphylococcus epidermidis. As to the kind of experiment: Antibacterial activity against Staphylococcus epidermidis ATCC 35984 after 24 hrs by resazurin dye based fluorescence assay. In kind it is functional. To be noted: ATCC 35984, 24 h. For orientation: Resazurin is reduced to fluorescent resorufin, in cell work by metabolically active cells.
The test system of a further experiment is Enterococcus faecium. Put plainly: Antibacterial activity against Enterococcus faecium ATCC […] after 24 hrs by resazurin dye based fluorescence assay. It counts as functional.
The next experiment has as its system Pseudomonas aeruginosa. Put plainly: Antibacterial activity against Pseudomonas aeruginosa ATCC 15442 after 24 hrs by resazurin dye based fluorescence assay. In kind it is functional. To be noted: ATCC 15442, 24 h.
In experiment [2] the test system is Staphylococcus aureus. As to the kind of experiment: Antibacterial activity against Staphylococcus aureus ATCC 6538 after 24 hrs by resazurin dye based fluorescence assay. Conditions: ATCC 6538, 24 h. In kind it is functional.
The test system of experiment [3] is Staphylococcus aureus. Put plainly: Antibacterial activity against methicillin-resistant Staphylococcus aureus ATCC 43300 after 24 hrs by resazurin dye based fluorescence assay. In kind it is functional. To be noted: ATCC 43300, 24 h.
A further experiment concerns Bacillus subtilis. Put plainly: Antibacterial activity against Bacillus subtilis ATCC 6051 after 24 hrs by resazurin dye based fluorescence assay. To be noted: ATCC 6051, 24 h. It counts as functional.
The next experiment has as its system MDCK. Put plainly: Cytotoxicity against MDCK cells assessed as reduction in cell viability after 72 hrs by MTT assay. Conditions: Canis lupus familiaris. It counts as cell-based.

Consider `O=C(c1cc(Cl)c(Cl)[nH]1)c1c(O)ccc(Cc2ccc(O)c(C(=O)c3cc(Cl)c(Cl)[nH]3)c2O)c1O`, for which the MIC – broadly, the least concentration at which growth counts as inhibited – in experiment [1] is 32 µg/mL (≈ 57.5 µM); with Enterococcus faecium it was 32 µg/mL (≈ 57.5 µM); against Pseudomonas aeruginosa, more than 32 µg/mL; in the experiment on Staphylococcus aureus [2], 32 µg/mL (≈ 57.5 µM); against Staphylococcus aureus [3], more than 32 µg/mL; against Bacillus subtilis, 32 µg/mL (≈ 57.5 µM). Also, the IC50 (in general, the concentration that inhibits the measured activity by half) with MDCK was 44 µM.
As for `O=C(c1cc(Cl)c(Cl)[nH]1)c1c(O)cccc1O` [PYOLUTEORIN], the MIC turned out to be 4 µg/mL (≈ 14.7 µM) in experiment [1]; 8 µg/mL (≈ 29.4 µM) in the experiment with Enterococcus faecium; 16 µg/mL (≈ 58.8 µM) in the experiment with Pseudomonas aeruginosa; 4 µg/mL (≈ 14.7 µM) against Staphylococcus aureus [2]; 8 µg/mL (≈ 29.4 µM) with Staphylococcus aureus [3]; 8 µg/mL (≈ 29.4 µM) with Bacillus subtilis. The half-maximal inhibitory concentration (IC50) in the experiment on MDCK turned out to be 4.8 µM.
Regarding `O=C(c1cc(Cl)c(Cl)[nH]1)c1c(O)ccc(Cc2cc(C(c3csc(-c4ccccc4O)n3)c3ccc(O)c(C(=O)c4cc(Cl)c(Cl)[nH]4)c3O)c(O)c(C(=O)c3cc(Cl)c(Cl)[nH]3)c2O)c1O` (stereo not given), the minimum inhibitory concentration (MIC) in experiment [1] is 2 µg/mL (≈ 1.97 µM); against Enterococcus faecium it was more than 32 µg/mL; against Pseudomonas aeruginosa, more than 32 µg/mL; in the experiment on Staphylococcus aureus [2] it was 4 µg/mL (≈ 3.94 µM); in the experiment on Staphylococcus aureus [3], 8 µg/mL (≈ 7.88 µM); in the experiment with Bacillus subtilis it was 8 µg/mL (≈ 7.88 µM). The IC50 in the experiment with MDCK was 28 µM.
Take `O=C(c1cc(Cl)c(Cl)[nH]1)c1c(O)ccc(C(c2csc(-c3ccccc3O)n2)c2ccc(O)c(C(=O)c3cc(Cl)c(Cl)[nH]3)c2O)c1O`: the MIC was found to be 2 µg/mL (≈ 2.73 µM) in experiment [1]; 8 µg/mL (≈ 10.9 µM) in the experiment on Enterococcus faecium; 8 µg/mL (≈ 10.9 µM) with Pseudomonas aeruginosa; 4 µg/mL (≈ 5.47 µM) in the experiment on Staphylococcus aureus [2]; 4 µg/mL (≈ 5.47 µM) against Staphylococcus aureus [3]; 4 µg/mL (≈ 5.47 µM) against Bacillus subtilis. Also, in the experiment on MDCK, the 50% inhibitory concentration (IC50) came out at 92 µM.
For the compound `O=C(N[C@H](CO)[C@H](O)c1ccc([N+](=O)[O-])cc1)C(Cl)Cl` [CHLORAMPHENICOL], in the experiment with Enterococcus faecium, the MIC stood at 8 µg/mL (≈ 24.8 µM).
In turn, `CCn1cc(C(=O)O)c(=O)c2ccc(C)nc21` [NALIDIXIC ACID] yielded an MIC against Pseudomonas aeruginosa of 4 µg/mL (≈ 17.2 µM).
Take `Cc1onc(-c2ccccc2)c1C(=O)N[C@@H]1C(=O)N2[C@@H]1SC(C)(C)[C@@H]2C(=O)O` [OXACILLIN]: the MIC is 2 µg/mL (≈ 4.98 µM) in experiment [1]; more than 32 µg/mL against Enterococcus faecium; 0.13 µg/mL (≈ 0.324 µM) with Staphylococcus aureus [2]; 8 µg/mL (≈ 19.9 µM) against Staphylococcus aureus [3]; 1 µg/mL (≈ 2.49 µM) against Bacillus subtilis.
